From article PMC2864305 (Biochemistry, 2010)

Molecular target: T1, RePC (Rhizobium etli pyruvate carboxylase) (Rhizobium etli, UniProt Q2K340)
T1 sequence (Q2K340 1-1154): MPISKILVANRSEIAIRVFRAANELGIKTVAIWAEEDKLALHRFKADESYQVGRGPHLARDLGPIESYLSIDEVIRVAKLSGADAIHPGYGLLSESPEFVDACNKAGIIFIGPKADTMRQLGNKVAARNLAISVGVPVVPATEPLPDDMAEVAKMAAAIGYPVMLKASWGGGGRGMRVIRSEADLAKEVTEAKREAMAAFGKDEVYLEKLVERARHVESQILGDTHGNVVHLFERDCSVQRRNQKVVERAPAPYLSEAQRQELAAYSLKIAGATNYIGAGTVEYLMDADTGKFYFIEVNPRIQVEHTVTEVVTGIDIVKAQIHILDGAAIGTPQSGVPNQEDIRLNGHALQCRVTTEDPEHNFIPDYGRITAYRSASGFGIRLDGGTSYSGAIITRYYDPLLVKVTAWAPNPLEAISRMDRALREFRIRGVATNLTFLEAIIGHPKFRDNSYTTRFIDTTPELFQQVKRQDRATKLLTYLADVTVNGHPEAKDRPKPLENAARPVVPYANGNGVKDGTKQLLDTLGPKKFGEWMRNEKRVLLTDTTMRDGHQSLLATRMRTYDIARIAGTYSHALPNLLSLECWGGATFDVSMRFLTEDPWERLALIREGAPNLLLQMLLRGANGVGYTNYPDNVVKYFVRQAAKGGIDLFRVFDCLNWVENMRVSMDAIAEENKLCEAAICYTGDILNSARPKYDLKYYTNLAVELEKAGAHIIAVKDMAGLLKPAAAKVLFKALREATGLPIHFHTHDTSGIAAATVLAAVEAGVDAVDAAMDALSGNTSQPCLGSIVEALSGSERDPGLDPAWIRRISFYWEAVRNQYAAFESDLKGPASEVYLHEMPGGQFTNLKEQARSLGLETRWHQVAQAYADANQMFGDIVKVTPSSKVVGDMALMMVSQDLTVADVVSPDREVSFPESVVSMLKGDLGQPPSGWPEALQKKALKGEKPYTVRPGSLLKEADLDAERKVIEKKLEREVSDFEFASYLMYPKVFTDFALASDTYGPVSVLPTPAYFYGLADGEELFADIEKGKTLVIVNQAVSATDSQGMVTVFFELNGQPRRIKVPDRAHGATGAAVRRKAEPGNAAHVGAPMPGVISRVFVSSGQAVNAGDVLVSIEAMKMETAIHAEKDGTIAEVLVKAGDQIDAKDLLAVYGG
Assay type: biochemical
Conditions: read-out: % inhibition at 20 mM

inhibition at 20000 µM: 68%
Structure (SMILES): NC(=O)C(=O)O [oxamate]
